Test results taken from patent US8969248B2, “5-iodotriazole derivatives” (Bayer Intellectual Property GmbH, priority 2010, dated 2015).

How the values were obtained:
Format in all cases: in vivo
Puccinia recondita [1] = test: Puccinia test (wheat)/protective; settings: protective spray, 500 ppm, evaluation 7-9 days after inoculation
Sphaerotheca fuliginea = test: Sphaerotheca test (cucumber)/protective; settings: protective spray, 500 ppm, evaluation 7 days after inoculation
Experimental: (§1) [table] To produce an appropriate active ingredient formulation, 1 part by weight of active ingredient is mixed with the specified amounts of solvent and emulsifier, and the concentrate is diluted with water to the desired concentration. To test for protective activity, young cucumber plants are sprayed with the active ingredient formulation at the stated application rate. 1 day after the treatment, the plants are inoculated with a spore suspension of Sphaerotheca fuliginea. The plants are then placed in a greenhouse at 70% relative air humidity and a temperature of 23° C.

Pyricularia oryzae = settings: rice, protective spray, 250 ppm, evaluation 5 days after inoculation
[2] = tested on: Blumeria graminis f. sp. hordei; test: Blumeria graminis test (barley)/protective; settings: protective spray, 500 ppm, evaluation 7 days after inoculation
Experimental: (§2) [table] To produce an appropriate active ingredient formulation, 1 part by weight of active ingredient is mixed with the specified amounts of solvent and emulsifier, and the concentrate is diluted with water to the desired concentration. To test for protective activity, young plants are sprayed with the active ingredient formulation at the stated application rate. After the spray coating has dried on, the plants are dusted with spores of Blumeria graminis f. sp. hordei.

Botrytis cinerea = test: Botrytis test (bean)/protective; settings: protective spray, 250 ppm, evaluation 2 days after inoculation
Experimental: as §2, with “2 small pieces of agar colonized by Botrytis cinerea” for “the plants”, “placed onto each leaf.” for “dusted with spores of Blumeria graminis f. sp. hordei.”

Fusarium graminearum = settings: barley, protective spray, 500 ppm, evaluation 5 days after inoculation
Leptosphaeria nodorum = Leptosphaeria nodorum test (wheat)/protective; settings: protective spray, 500 ppm, evaluation 8 days after inoculation
Experimental: as §2, with “sprayed” for “dusted”, “spores with a spore suspension” for “spores”, “Leptosphaeria nodorum.” for “Blumeria graminis f. sp. hordei.”

Pyrenophora teres = Pyrenophora teres test (barley)/protective; settings: protective spray, 500 ppm, evaluation 8 days after inoculation
Experimental: as §2, with “sprayed” for “dusted”, “a spore suspension” for “spores”, “Pyrenophora teres.” for “Blumeria graminis f. sp. hordei.”

Uromyces appendiculatus = test: Uromyces test (bean)/protective; settings: protective spray, 100 ppm, evaluation 10 days after inoculation
Experimental: as §1, with “young” for “young cucumber”, “1 day after the treatment, the plants are inoculated with a spore suspension of Sphaerotheca fuliginea.” left out, “approx. 21° C. and a” for “70%”, “humidity” for “humidity and a temperature”, “approx. 90%.” for “23° C.”

Venturia inaequalis = test: Venturia test (apple)/protective; settings: protective spray, 100 ppm, evaluation 10 days after inoculation
Experimental: as §1, with “young” for “young cucumber”, “1 day after the treatment, the plants are inoculated with a spore suspension of Sphaerotheca fuliginea.” left out, “approx. 21° C. and a” for “70%”, “humidity” for “humidity and a temperature”, “approx. 90%.” for “23° C.”

Septoria tritici = Septoria tritici test (wheat)/protective; settings: protective spray, 500 ppm, evaluation 21 days after inoculation
Phakopsora pachyrhizi = test: Phakopsora test (soya beans)/protective; settings: protective spray, 100 ppm, evaluation 1 days after inoculation (so in the source)
Cochliobolus miyabeanus = test: Cochliobolus test (rice)/protective; settings: protective spray, 250 ppm, evaluation 4 days after inoculation
Fusarium culmorum = test: Fusarium test (wheat)/seed treatment; settings: dose 50 g/dt (rate 100 [sic]), 14 days at 20° C., counting emerged plants
Experimental: The test was conducted under greenhouse conditions. Wheat seeds treated with an inventive active compound or a combination of inventive active compounds were sown in 6×6 cm vessels, into a mixture of steamed field soil and sand (1:1). The test compound(s) were dissolved in N-methyl-2-pyrrolidone and diluted to the desired concentration with water. Wheat kernels were inoculated with spores of Fusarium culmorum. The infected and ground kernels were distributed between the treated wheat seeds. The seeds were covered with a top layer of clay granules and incubated in a greenhouse at 20° C. for 14 days. Evaluation was effected by counting the plants which emerged. 0% means an efficacy which corresponds to that of the untreated control, whereas an efficacy of 100% means that all seeds have germinated. In this test, the following inventive compounds show an efficiency of 70% or higher at a dose of 50 g/dt.: […]

Microdochium nivale = test: Microdochium test (wheat)/seed treatment; settings: dose 50 g/dt (rate 100 [sic]), 21 days at 10° C., counting emerged plants
Experimental: The test was conducted under greenhouse conditions. Wheat seeds treated with an inventive active compound or a combination of inventive active compounds were sown in 6×6 cm vessels, into a mixture of steamed field soil and sand (1:1). The test compound(s) were dissolved in N-methyl-2-pyrrolidone and diluted to the desired concentration with water. Wheat kernels were inoculated with spores of Microdochium nivale. The infected and ground kernels were distributed between the treated wheat seeds. The seeds were covered with a top layer of steamed field soil and sand (1:1) and incubated in a greenhouse at 10° C. for 21 days. […] In this test, the following inventive compounds show an efficiency of 70% or higher at a dose of 50 g/dt.

Puccinia recondita [3] = test: Puccinia test (wheat)/seed treatment; settings: dose 50 g/dt (rate 100 [sic]), inoculated 14 days after sowing, evaluated 9 days later, infected leaf area
Experimental: The test was conducted under greenhouse conditions. Wheat seeds treated with an inventive active compound or a combination of inventive active compounds were sown in 6×6 cm vessels, into a mixture of steamed field soil and sand (1:1). The test compound(s) were dissolved in N-methyl-2-pyrrolidone and diluted to the desired concentration with water. The wheat grains treated were sown and placed in a greenhouse at 10° C. 14 days after sowing, the plants were inoculated with a spore suspension of Puccinia recondita. The plants were incubated at 20° C. for a further 9 days. […] In this test, the following inventive compounds show an efficiency of 70% or higher at a dose of 50 g/dt: […]

Leptosphaeria maculans = test: Leptosphaeria test (oilseed rape)/seed treatment; settings: dose 50 g/dt (rate 100 [sic]), 14 days at 10° C. and 7 days at 18° C., counting emerged plants
Experimental: The test was conducted under greenhouse conditions. […] treated with an inventive active compound or a combination of inventive active compounds were sown in 6×6 cm vessels, into a mixture of steamed field soil and sand (1:1). The test compound(s) were dissolved in N-methyl-2-pyrrolidone and diluted to the desired concentration with water. Perlite was inoculated with spores of Leptosphaeria maculans. The infected perlite was distributed between the treated […]. The seeds were covered with a top layer of steamed field soil and sand (1:1) and incubated in a greenhouse at 10° C. for 14 days and at 18° C. for 7 days. […] In this test, the following inventive compounds show an efficiency of 70% or higher at a dose of 50 g/dt.: […]

Rhizoctonia solani = test: Rhizoctonia test (cotton)/seed treatment; settings: dose 50 g/dt (rate 100 [sic]), 7 days at 20° C., counting emerged and diseased plants
Experimental: The test was conducted under greenhouse conditions. Cottonseeds treated with an inventive active compound or a combination of inventive active compounds were sown in 6×6 cm vessels, into a mixture of steamed field soil and sand (1:1). The test compound(s) were dissolved in N-methyl-2-pyrrolidone and diluted to the desired concentration with water. Perlite was inoculated with spores of Rhizoctonia solani. The infected perlite was distributed between the treated cottonseeds. The seeds were covered with a top layer of clay granules and incubated in a greenhouse at 20° C. for 7 days. […] In this test, the following inventive compounds show an efficiency of 70% or higher at a dose of 50 g/dt: […]

| SMILES | Efficacy (%) (Puccinia recondita [1]) | Efficacy (%) (Sphaerotheca fuliginea) | Efficacy (%) (Pyricularia oryzae) | Efficacy (%) [2] [%] | Efficacy (%) (Botrytis cinerea) | Efficacy (%) (Fusarium graminearum) | Efficacy (%) (Leptosphaeria nodorum) | Efficacy (%) (Pyrenophora teres) | Efficacy (%) (Uromyces appendiculatus) | Efficacy (%) (Venturia inaequalis) | Efficacy (%) (Septoria tritici) | Efficacy (%) (Phakopsora pachyrhizi) | efficacy (Cochliobolus miyabeanus) [%] | Efficacy (%) (Fusarium culmorum) | Efficacy (%) (Microdochium nivale) | Efficacy (%) (Puccinia recondita [3]) | Efficacy (%) (Leptosphaeria maculans) | Efficacy (%) (Rhizoctonia solani) |
| --- | --- | --- | --- | --- | --- | --- | --- | --- | --- | --- | --- | --- | --- | --- | --- | --- | --- | --- |
| OC(Cn1ncnc1I)(c1ccc(F)cc1F)C1(Oc2ccccc2Cl)CC1 (stereo not shown) [Compound 11] | 94 | 100 | 93 | – | – | – | – | – | – | – | – | – | – | – | – | – | – | – |
| CC(C)(C)C(O)(CCc1ccc(Cl)cc1)Cn1ncnc1I (stereo not shown) [Compound 2] | 100 | 100 | – | 100 | 90 | 100 | 100 | 94 | 100 | 100 | – | – | – | – | – | – | – | – |
| OC(Cc1ccccc1Cl)(Cn1ncnc1I)C1(F)CC1 (stereo not shown) [Compound 13] | – | 100 | – | 100 | – | 100 | 86 | 100 | 100 | 99 | 100 | – | – | – | – | – | – | – |
| OC(Cn1ncnc1I)(c1ccc(Br)cc1)C1(Oc2ccccc2)CC1 (stereo not shown) [Compound 9] | 100 | 100 | – | – | – | – | – | – | 100 | 100 | – | – | – | – | – | – | – | – |
| CC1COC(Cn2ncnc2I)(c2ccc(Oc3ccc(Cl)cc3)cc2Cl)O1 (mixture of isomers) [Compound 8] | 100 | 100 | – | 100 | – | – | 94 | 88 | 100 | 100 | – | 98 | – | – | – | – | – | – |
| Fc1cccc(C2(Cn3ncnc3I)OC2c2ccccc2Cl)c1 (stereo not shown) [Compound 16] | 90 | 100 | – | – | – | – | – | – | – | – | – | – | – | – | – | – | – | – |
| OC(Cn1ncnc1I)(c1ccc(Br)cc1)C1(Oc2ccc(F)cc2)CC1 (stereo not shown) [Compound 6] | 100 | 100 | – | – | – | – | – | – | – | – | – | – | – | – | – | – | – | – |
| OC(Cn1ncnc1I)(c1ccc(Cl)cc1)C1(Oc2ccccc2F)CC1 (stereo not shown) [Compound 7] | 100 | 100 | – | – | – | – | – | – | 100 | 100 | – | 98 | – | – | – | – | – | – |
| OC(Cc1ccc(F)cc1)(Cn1ncnc1I)C1(Cl)CC1 (stereo not shown) [Compound 4] | 100 | 100 | ≥ 80 | 100 | 89 | 100 | 93 | 100 | 100 | 100 | 100 | – | ≥ 80 | – | – | – | – | – |
| CC(C1CC1)C(O)(Cn1ncnc1I)c1ccc(Cl)cc1 (stereo not shown) [Compound 17] | 89 | 95 | – | – | – | – | – | – | – | – | – | – | – | – | – | – | – | – |
| OC(Cn1ncnc1I)(c1ccc(F)cc1F)C1(Oc2ccc(F)cc2)CC1 (stereo not shown) [Compound 10] | 100 | 100 | 97 | – | – | – | – | – | 100 | 100 | – | 98 | – | – | – | – | – | – |
| Fc1ccc(C2(Cn3ncnc3I)OC2c2ccccc2Cl)cc1 (stereo not shown) [Compound 1] | 100 | 100 | – | 100 | 73 | 75 | 100 | 78 | 97 | 97 | 100 | – | – | – | – | – | – | – |
| CC(C)(C)C(O)(COc1ccc(Cl)cc1)Cn1ncnc1I (stereo not shown) [Compound 18] | 100 | 100 | – | 100 | – | – | 100 | 93 | 100 | 100 | 100 | – | – | – | – | – | – | – |
| OC(Cc1ccccc1Cl)(Cn1ncnc1I)C1(Cl)CC1 (stereo not shown) [Compound 3] | 100 | 100 | 94 | 100 | 100 | 100 | 100 | 100 | 100 | 100 | 88 | 98 | ≥ 98 | 100 | 100 | 100 | 100 | 100 |
